# Reference: patent publication US9850283B2, “Macrocyclic inhibitors of the PD-1/PD-L1 and CD80(B7-1)/PD-L1 protein/protein interactions” (BRISTOL-MYERS SQUIBB COMPANY, priority 2013, dated 2017)
# Like-named read-outs stand apart in the source and are kept apart here. Starred links: 1 amine or outer side, 2 acyl side, 3 side chain; linkers in the order of their positions; H or OH if unused. Positions of bridges follow the written chain, without caps; N, C: chain ends. Non-standard residues stand in square brackets, D forms with d. Residues, ends and D or L forms follow the SMILES beside them. ξ: configuration not given here. *: point of attachment. X3 = O=C([C@@H]1C[C@@H](Cc2ccc(F)cc2)CN1[*:1])[*:2]; Phe(4-CHF2) = N[C@@H](Cc1ccc(C(F)F)cc1)C(=O)O; Trp(7-aza) = N[C@@H](Cc1c[nH]c2ncccc12)C(=O)O; Phe(3,4-Me2) = Cc1ccc(C[C@H](N)C(=O)O)cc1C; Bta = N[C@@H](Cc1csc2ccccc12)C(=O)O; Hyp = O=C(O)[C@@H]1C[C@@H](O)CN1; NMeF = CN[C@@H](Cc1ccccc1)C(=O)O; NMeNle = CCCC[C@H](NC)C(=O)O; NMeA = CN[C@@H](C)C(=O)O; Orn = NCCC[C@H](N)C(=O)O; Dab = NCC[C@H](N)C(=O)O; Dap = NC[C@H](N)C(=O)O; Alloc = C=CCOC(=O)*; ξC = NC(CS)C(=O)O; Sar = CNCC(=O)O
# Key:
# [1] = molecular target: T1, LK35.2-hPD-L1 cells / PE-labeled PD-1-Ig (Homo sapiens, UniProt Q9NZQ7); test: LK35.2-hPD-L1 cell binding high-content screening assay; assay type: cell-based; conditions: cluster symbol, read-out: CBA IC50 cluster
# T1 construct: expressed in transfected cells; host or cells: LK35.2 mouse B cell line
# Method in brief: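 Binding of PE-conjugated human PD-1-Ig (1 nM final) to human PD-L1 stably expressed on a mouse B-cell line (LK35.2) was measured by high-content imaging after washes. Compound and labeled PD-1-Ig were co-incubated 1 h at 37 °C with cells in RPMI/10% FCS.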
# [2] = molecular target: T2, Human PD-L1/PD-1 (Homo sapiens, UniProt Q9NZQ7); test: HTRF PD-1-Ig/PD-L1-His binding assay (human PD-L1); conditions: cluster symbol; read-out: HTRF IC50 cluster
# T2 construct: made in house; host or cells: HEK293T
# Method in brief: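 HTRF read-out: Eu cryptate anti-Ig mAb 1 nM final, APC anti-His mAb 20 nM final, added over the binding reaction. Proteins were PD-1-Ig and PD-L1-His ectodomain fusions. Buffer was dPBS, 0.1% BSA, 0.05% Tween-20.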
# [3] = cell binding assay, cell line not given
# [4] = cell line of CBA not given (LK35.2-hPD-L1 or 293T-hPD-L1)
# T1 sequence (Q9NZQ7 19-290): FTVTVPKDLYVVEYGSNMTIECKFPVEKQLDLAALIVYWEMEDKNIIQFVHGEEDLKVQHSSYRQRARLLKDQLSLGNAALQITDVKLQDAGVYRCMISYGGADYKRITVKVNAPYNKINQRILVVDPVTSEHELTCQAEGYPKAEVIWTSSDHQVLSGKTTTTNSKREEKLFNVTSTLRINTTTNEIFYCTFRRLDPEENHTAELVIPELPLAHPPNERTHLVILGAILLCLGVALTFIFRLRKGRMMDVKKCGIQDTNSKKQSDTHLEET
# T2 sequence (Q9NZQ7 with tags, fused parts or gaps): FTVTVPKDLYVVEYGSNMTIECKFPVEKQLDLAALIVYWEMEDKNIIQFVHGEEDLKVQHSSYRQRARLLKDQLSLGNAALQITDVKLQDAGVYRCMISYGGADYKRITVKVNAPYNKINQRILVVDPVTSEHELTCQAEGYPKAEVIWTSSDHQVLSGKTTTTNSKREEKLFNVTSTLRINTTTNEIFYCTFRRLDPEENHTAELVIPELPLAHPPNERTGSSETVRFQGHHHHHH
Compound,"IC50 [1, 3] [nM]",IC50 [2] [nM],"IC50 [1, 4] [nM]"
"CCCC[C@H]1C(=O)N(C)[C@@H](CCCC)C(=O)N[C@@H](CCCNC(=N)N)C(=O)N[C@H](C(=O)NCC(N)=O)CSCC(=O)N[C@@H](Cc2ccc(C)c(C)c2)C(=O)N(C)[C@@H](C)C(=O)N[C@@H](CC(N)=O)C(=O)N2CCC[C@H]2C(=O)N[C@@H](Cc2cnc[nH]2)C(=O)N[C@@H](CC(C)C)C(=O)N2CCC[C@H]2C(=O)N[C@@H](Cc2c[nH]c3ccccc23)C(=O)N[C@@H](CO)C(=O)N[C@@H](Cc2c[nH]c3ccccc23)C(=O)N1C [Example 7015] ({CH2CO}-[Phe(3,4-Me2)][NMeA]NPHLPWSW[NMeNle][NMeNle]RCG-NH2; thioether N-14)",4.78 to 72.9,6.76 to 30.3,
"CCCC[C@H]1C(=O)N(C)CC(=O)N[C@@H](CC(=O)O)C(=O)N[C@@H](C(C)C)C(=O)N[C@@H](Cc2ccc(O)cc2)C(=O)N[C@@H](Cc2ccc(O)cc2)C(=O)N(C)CC(=O)N[C@@H](Cc2c[nH]c3ccccc23)C(=O)N[C@@H](Cc2ccc(O)cc2)C(=O)N[C@@H](CC(C)C)C(=O)N[C@H](C(=O)NCC(N)=O)CSCC(=O)N[C@@H](Cc2ccccc2)C(=O)N(C)[C@@H](Cc2ccccc2)C(=O)N1C [Example 3504] (HELM PEPTIDE1{[O=C(C[*:3])[*:2]].F.[meF].[CCCC[C@@H](C(=O)[*:2])N(C)[*:1]].[Sar].D.V.Y.Y.[Sar].W.Y.L.C.G.[am]}$PEPTIDE1,PEPTIDE1,1:R3-14:R3$$$V2.0)",> 74.3,> 30.5,
CCCC[C@H]1C(=O)N(C)CC(=O)N[C@@H](CC(=O)O)C(=O)N[C@@H](C(C)C)C(=O)N(C)[C@@H](Cc2ccccc2)C(=O)N[C@@H](Cc2ccc(O)cc2)C(=O)N(C)CC(=O)N[C@@H](Cc2csc3ccccc23)C(=O)N[C@@H](Cc2ccc(O)cc2)C(=O)N[C@@H](CCC(=O)O)C(=O)N[C@H](C(=O)NCC(N)=O)CSCC(=O)N[C@@H](Cc2ccccc2)C(=O)N(C)[C@@H](Cc2ccccc2)C(=O)N1C [Example 3074] ({CH2CO}-F[NMeF][NMeNle][Sar]DV[NMeF]Y[Sar][Bta]YECG-NH2; thioether N-13),,6.76 to 30.3,4.78 to 72.9
CCCC[C@H]1C(=O)N(C)[C@@H](CCCC)C(=O)N[C@@H](CCCNC(=N)N)C(=O)N[C@H](C(=O)NCC(N)=O)CSCC(=O)N[C@@H](Cc2ccccc2)C(=O)N(C)[C@@H](C)C(=O)N[C@@H](CC(N)=O)C(=O)N2CCC[C@H]2C(=O)N[C@@H](Cc2cnc[nH]2)C(=O)N[C@@H](CC(C)C)C(=O)N(C)CC(=O)N[C@@H](Cc2c[nH]c3ccccc23)C(=O)N[C@@H](CO)C(=O)N[C@@H](Cc2c[nH]c3ncccc23)C(=O)N1C [Example 1038] ({CH2CO}-F[NMeA]NPHL[Sar]WS[Trp(7-aza)][NMeNle][NMeNle]RCG-NH2; thioether N-14),,> 30.5,> 74.3
CCCC[C@H]1C(=O)N(C)[C@@H](CCCC)C(=O)N[C@@H](C)C(=O)N[C@H](C(=O)NCC(N)=O)CSCC(=O)N[C@@H](Cc2ccc(O)cc2)C(=O)N(C)[C@@H](C)C(=O)N[C@@H](CC(=O)O)C(=O)N2CCC[C@H]2C(=O)N[C@@H](Cc2cnc[nH]2)C(=O)N[C@@H](CCCNC(C)=O)C(=O)N2C[C@H](O)C[C@H]2C(=O)N[C@@H](Cc2c[nH]c3ccccc23)C(=O)N[C@@H](CO)C(=O)N[C@@H](Cc2c[nH]c3ccccc23)C(=O)N1C [Example 1156] ({CH2CO}-Y[NMeA]DPH[Orn](Ac)[Hyp]WSW[NMeNle][NMeNle]ACG-NH2; thioether N-14),,0.385 to 6.74,0.158 to 4.71
CCCC[C@H]1C(=O)N(C)[C@@H](CCCC)C(=O)N[C@@H](CCCNC(=N)N)C(=O)N[C@H](C(=O)NCC(N)=O)CSCC(=O)N[C@@H](Cc2ccccc2)C(=O)N(C)[C@@H](C)C(=O)N[C@@H](CC(N)=O)C(=O)N2CCC[C@H]2C(=O)N[C@@H](Cc2cnc[nH]2)C(=O)N[C@@H](CC(C)C)C(=O)N[C@@H](CC(N)=O)C(=O)N[C@@H](Cc2c[nH]c3ccccc23)C(=O)N[C@@H](CO)C(=O)N[C@@H](Cc2c[nH]c3ccccc23)C(=O)N1C [Example 1075] ({CH2CO}-F[NMeA]NPHLNWSW[NMeNle][NMeNle]RCG-NH2; thioether N-14),,> 30.5,> 74.3

# The remaining lines, values ahead:
"IC50 [1, 3] [nM]",IC50 [2] [nM],"IC50 [1, 4] [nM]",Compound
0.158 to 4.71,0.385 to 6.74,,CCCC[C@H]1C(=O)N(C)[C@@H](CCCC)C(=O)N[C@@H](CC(C)C)C(=O)N[C@H](C(=O)NCC(N)=O)CSCC(=O)N[C@@H](Cc2ccc(O)cc2)C(=O)N(C)[C@@H](C)C(=O)N[C@@H](CC(N)=O)C(=O)N2CCC[C@H]2C(=O)N[C@@H](Cc2c[nH]cn2)C(=O)N[C@@H](CCC(=O)O)C(=O)N2C[C@H](O)C[C@H]2C(=O)N[C@@H](Cc2c[nH]c3ccccc23)C(=O)N[C@@H](CCN)C(=O)N[C@@H](Cc2c[nH]c3ccccc23)C(=O)N1C [Example 5065] ({CH2CO}-Y[NMeA]NPHE[Hyp]W[Dab]W[NMeNle][NMeNle]LCG-NH2; thioether N-14)
0.158 to 4.71,0.385 to 6.74,,CCCC[C@H]1C(=O)N(C)[C@@H](CCCC)C(=O)N[C@@H](CCCNC(=N)N)C(=O)N[C@H](C(=O)NCC(N)=O)CSCC(=O)N[C@@H](Cc2ccc(O)cc2)C(=O)N(C)[C@@H](C)C(=O)N[C@@H](CCCCN)C(=O)N2CCC[C@H]2C(=O)N[C@@H](Cc2c[nH]cn2)C(=O)N[C@@H](CCC(=O)O)C(=O)N2C[C@H](O)C[C@H]2C(=O)N[C@@H](Cc2c[nH]c3ccccc23)C(=O)N[C@@H](CO)C(=O)N[C@@H](Cc2c[nH]c3ccccc23)C(=O)N1C [Example 5124] ({CH2CO}-Y[NMeA]KPHE[Hyp]WSW[NMeNle][NMeNle]RCG-NH2; thioether N-14)
0.158 to 4.71,0.385 to 6.74,,CCCC[C@H]1C(=O)N(C)[C@@H](CCCC)C(=O)N[C@@H](CCCNC(=N)N)C(=O)N[C@H](C(=O)NCC(N)=O)CSCC(=O)N[C@@H](Cc2ccc(O)cc2)C(=O)N(C)[C@@H](C)C(=O)N[C@@H](CC(N)=O)C(=O)N2CCC[C@H]2C(=O)N[C@@H](CN)C(=O)N[C@@H](CC(C)C)C(=O)N2C[C@H](O)C[C@H]2C(=O)N[C@@H](Cc2c[nH]c3ccccc23)C(=O)N[C@@H](CC(C)C)C(=O)N[C@@H](Cc2c[nH]c3ccccc23)C(=O)N1C [Example 6034] ({CH2CO}-Y[NMeA]NP[Dap]L[Hyp]WLW[NMeNle][NMeNle]RCG-NH2; thioether N-14)
4.78 to 72.9,0.385 to 6.74,,CCCC[C@H]1C(=O)N(C)[C@@H](C)C(=O)N[C@@H](CCCNC(=N)N)C(=O)NC(C(=O)NCC(N)=O)CSCC(=O)N[C@@H](Cc2ccc(O)cc2)C(=O)N(C)[C@@H](C)C(=O)N[C@@H](CC(N)=O)C(=O)N2CCC[C@H]2C(=O)N[C@@H](Cc2cnc[nH]2)C(=O)N[C@@H](CC(C)C)C(=O)N2CCC[C@H]2C(=O)N[C@@H](Cc2c[nH]c3ccccc23)C(=O)N[C@@H](CO)C(=O)N[C@@H](Cc2c[nH]c3ccccc23)C(=O)N1C (stereo partly shown) [Example 9054] ({CH2CO}-Y[NMeA]NPHLPWSW[NMeNle][NMeA]R[ξC]G-NH2; thioether N-14)
,> 30.5,> 74.3,CCCC[C@H]1C(=O)N(C)[C@@H](CCCC)C(=O)N[C@@H](CCCNC(=N)N)C(=O)N[C@H](C(=O)NCC(N)=O)CSCC(=O)N[C@@H](Cc2ccc(C(F)F)cc2)C(=O)N(C)[C@@H](C)C(=O)N[C@@H](CC(N)=O)C(=O)N2CCC[C@H]2C(=O)N[C@@H](Cc2cnc[nH]2)C(=O)N[C@@H](CC(C)C)C(=O)N2CCC[C@H]2C(=O)N[C@@H](Cc2c[nH]c3ccccc23)C(=O)N[C@@H](CO)C(=O)N[C@@H](Cc2csc3ccccc23)C(=O)N1C [Example 1044] ({CH2CO}-[Phe(4-CHF2)][NMeA]NPHLPWS[Bta][NMeNle][NMeNle]RCG-NH2; thioether N-14)
,> 30.5,> 74.3,C=CCOC(=O)NCCC[C@@H]1NC(=O)[C@H](CCCC)N(C)C(=O)[C@H](CCCC)N(C)C(=O)[C@H](Cc2csc3ccccc23)NC(=O)[C@H](CCNC(=O)OCC=C)NC(=O)[C@H](Cc2c[nH]c3ccccc23)NC(=O)[C@@H]2C[C@@H](O)CN2C(=O)[C@H](CCC(=O)O)NC(=O)[C@H](Cc2cnc[nH]2)NC(=O)[C@@H]2CCCN2C(=O)[C@H](CCCN)NC(=O)[C@H](C)N(C)C(=O)[C@H](Cc2ccc(O)cc2)NC(=O)CSC[C@@H](C(=O)NCC(N)=O)NC1=O [Example 1230] ({CH2CO}-Y[NMeA][Orn]PHE[Hyp]W[Dab](Alloc)[Bta][NMeNle][NMeNle][Orn](Alloc)CG-NH2; thioether N-14)
> 74.3,0.385 to 6.74,,CCCC[C@H]1C(=O)N(C)[C@@H](CCCC)C(=O)N[C@@H](CCC(=O)O)C(=O)N[C@H](C(=O)NCC(N)=O)CSCC(=O)N[C@@H](Cc2ccc(O)cc2)C(=O)N(C)[C@@H](C)C(=O)N[C@@H](CC(=O)O)C(=O)N2CCC[C@H]2C(=O)N[C@@H](Cc2c[nH]cn2)C(=O)N[C@@H](CCCCN)C(=O)N2C[C@H](Cc3ccc(F)cc3)C[C@H]2C(=O)N[C@@H](Cc2c[nH]c3ccccc23)C(=O)N[C@@H](CCCCN)C(=O)N[C@@H](Cc2c[nH]c3ccccc23)C(=O)N1C [Example 13014] ({CH2CO}-Y[NMeA]DPHK[X3]WKW[NMeNle][NMeNle]ECG-NH2; thioether N-14)
,0.385 to 6.74,0.158 to 4.71,"CCCC[C@H]1C(=O)N2CCC[C@@H]2C(=O)N[C@@H](CCCCN)C(=O)N[C@@H](C(C)C)C(=O)N(C)[C@@H](Cc2ccccc2)C(=O)N[C@@H](CCC(=O)O)C(=O)N2CCC[C@@H]2C(=O)N[C@@H](Cc2c[nH]c3ccccc23)C(=O)N[C@@H](Cc2ccc(O)cc2)C(=O)N[C@@H](CC(C)C)C(=O)N[C@H](C(=O)NCC(N)=O)CSCC(=O)N[C@@H](Cc2ccccc2)C(=O)N(C)[C@@H](Cc2ccccc2)C(=O)N1C [Example 3190] (HELM PEPTIDE1{[O=C(C[*:3])[*:2]].F.[meF].[CCCC[C@@H](C(=O)[*:2])N(C)[*:1]].[dP].K.V.[meF].E.[dP].W.Y.L.C.G.[am]}$PEPTIDE1,PEPTIDE1,1:R3-14:R3$$$V2.0)"
